Target: T1, Methylated-DNA--protein-cysteine methyltransferase (Homo sapiens) (UniProt P16455)
T1 sequence (whole entry): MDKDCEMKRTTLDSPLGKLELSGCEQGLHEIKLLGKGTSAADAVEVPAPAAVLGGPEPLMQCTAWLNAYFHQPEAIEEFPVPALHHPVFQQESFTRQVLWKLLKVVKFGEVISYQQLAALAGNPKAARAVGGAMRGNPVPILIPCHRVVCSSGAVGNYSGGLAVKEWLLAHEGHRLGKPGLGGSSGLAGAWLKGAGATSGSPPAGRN
Test: Binding to human MGMT
Conditions: tested as the 131I-labelled form

Activity [%]	SMILES
80	Nc1nc(OCc2ccc(I)s2)c2[nH]cnc2n1
97	Nc1nc(OCc2cccc(I)c2)c2[nH]cnc2n1
